Drawing on patent US20240246964A1 (Arbutus Biopharma Corporation, priority 2021, published 2024), this text covers IC50 and EC50 for 21 compounds.

The target in test [1] is PD-L1 His protein / PD-1 Fc protein (Homo sapiens (Human), UniProt Q9NZQ7). Description: HTRF Assay (PD-1/PD-L1 interaction). Particulars: PD-L1 His 6 nM, PD-1 Fc 6 nM. Format: binding. (In general: TR-FRET usually uses a lanthanide donor and a delayed reading to cut background.)
The target of the next test is human PD-L1 (Homo sapiens (Human), UniProt Q9NZQ7). Nature of the test: T cell activation luciferase reporter cell culture system (T Cell Activation Assay). It counts as cell-based. Particulars: luciferase reporter assay; PD-L1 aAPC/CHO-K1 cells with PD-1 effector Jurkat T cells. A general note: Reporter assays use an easily measured gene product as a stand-in for the process of interest.

A value given as a limit tells only on which side of the number the result lay.

PD-L1 His protein / PD-1 Fc protein, sequence (Q9NZQ7 19-238): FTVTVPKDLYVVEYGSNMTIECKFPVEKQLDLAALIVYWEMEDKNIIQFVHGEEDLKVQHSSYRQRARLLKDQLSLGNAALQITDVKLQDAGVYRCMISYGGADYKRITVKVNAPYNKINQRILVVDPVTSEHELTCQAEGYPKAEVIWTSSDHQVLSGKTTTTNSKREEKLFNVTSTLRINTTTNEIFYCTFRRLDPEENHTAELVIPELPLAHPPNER
human PD-L1, sequence (Q9NZQ7 19-290): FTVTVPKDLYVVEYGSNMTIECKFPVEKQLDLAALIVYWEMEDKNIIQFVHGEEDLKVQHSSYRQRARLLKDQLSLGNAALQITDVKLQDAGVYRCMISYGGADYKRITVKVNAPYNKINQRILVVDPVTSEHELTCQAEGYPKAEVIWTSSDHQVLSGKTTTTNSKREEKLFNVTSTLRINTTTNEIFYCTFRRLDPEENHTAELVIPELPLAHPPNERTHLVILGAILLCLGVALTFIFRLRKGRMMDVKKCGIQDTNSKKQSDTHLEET

Regarding `COC(=O)C1(NCc2cc(C(F)(F)F)c(N[C@H]3CCc4c(-c5nccc(-c6ccc(CNC[C@@H]7CCC(=O)N7)c(OC)n6)c5Cl)cccc43)nc2OC)CC1` [Compound 149, methyl 1-(((6-(((S)-4-(3′-chloro-6-methoxy-5-(((((S)-5-oxopyrrolidin-2-yl)methyl)amino)methyl)-[2,4′-bipyridin]-2′-yl)-2,3-dihydro-1H-inden-1-yl)amino)-2-methoxy-5-(trifluoromethyl)pyridin-3-yl)methyl)amino)cyclopropane-1-carboxy late], in test [1], the concentration for half-maximal inhibition (IC50) (usually the point on the concentration scale where inhibition reaches its midpoint) came out at 12.7 nM. The EC50 (as a rule, the midpoint of the concentration-response curve) on human PD-L1 is at least 10000 nM.
The corresponding values for `COc1nc(-c2cccc(-c3ccnc(-c4ccc5nc([C@H]6N[C@@H]7CC[C@H]6C7)[nH]c5c4)c3Cl)c2Cl)ccc1CNC[C@@H]1CCC(=O)N1` [Compound 152, (S)-5-((((6-(3-(2-(2-((1R,3S,4S)-2-azabicyclo[2.2.1]heptan-3-yl)-1H-benzo[d]imidazol-6-yl)-3-chloropyridin-4-yl)-2-chlorophenyl)-2-methoxypyridin-3-yl)methyl)amino)methyl)pyrrolidin-2-one] are 2.57 nM and at least 10000 nM.
For `COc1cc(CNC[C@@H]2CCC(=O)N2)cc(-c2nccc(-c3cccc(-c4ccc(CNC[C@@H]5CCC(=O)N5)c(OC)n4)c3Cl)c2Cl)c1` [Compound 153, (S)-5-((((6-(2-chloro-3-(3-chloro-2-(3-methoxy-5-(((((S)-5-oxopyrrolidin-2-yl)methyl)amino)methyl)phenyl)pyridin-4-yl)phenyl)-2-methoxypyridin-3-yl)methyl)amino)methyl)pyrrolidin-2-one] the same measures were 5.14 nM and 782 nM.
The corresponding values for `COc1cc(CNC2CCN(C(C)=O)CC2)cc(-c2nccc(-c3cccc(-c4ccc(CNC5CCN(C(C)=O)CC5)c(OC)n4)c3Cl)c2Cl)c1` [Compound 154, 1-(4-(((6-(3-(2-(3-(((1-acetylpiperidin-4-yl)amino)methyl)-5-methoxyphenyl)-3-chloropyridin-4-yl)-2-chlorophenyl)-2-methoxypyridin-3-yl)methyl)amino)piperidin-1-yl)ethan-1-one] are 8.73 nM and at least 10000 nM.
In test [1], `CNCc1cc(OC)cc(-c2nccc(-c3cccc(-c4ccc(CNC)c(OC)n4)c3Cl)c2Cl)c1` [Compound 155, 1-(6-(2-chloro-3-(3-chloro-2-(3-methoxy-5-((methylamino)methyl)phenyl)pyridin-4-yl)phenyl)-2-methoxypyridin-3-yl)-N-methylmethanamine] registered an IC50 of 6.82 nM. This compound also yielded an EC50 at human PD-L1 of at least 10000 nM.
The corresponding values for `COc1cc(CNCCO)cc(-c2nccc(-c3cccc(-c4ccc(CNCCO)c(OC)n4)c3Cl)c2Cl)c1` [Compound 156, 2-(((6-(2-chloro-3-(3-chloro-2-(3-(((2-hydroxyethyl)amino)methyl)-5-methoxyphenyl)pyridin-4-yl)phenyl)-2-methoxypyridin-3-yl)methyl)amino)ethan-1-ol] are 1.18 nM and at least 10000 nM.
The corresponding values for `COc1cc(CNC[C@H](C)O)cc(-c2nccc(-c3cccc(-c4ccc(CNC[C@H](C)O)c(OC)n4)c3Cl)c2Cl)c1` [Compound 157, (S)-1-(((6-(2-chloro-3-(3-chloro-2-(3-((((S)-2-hydroxypropyl)amino)methyl)-5-methoxyphenyl)pyridin-4-yl)phenyl)-2-methoxypyridin-3-yl)methyl)amino)propan-2-ol] are 2.45 nM and at least 10000 nM.
The corresponding values for `COc1nc(-c2cccc(-c3ccnc(-c4ccc5c6c(n(C)c5c4)CCN(CCO)C6)c3Cl)c2Cl)ccc1CNC[C@@H]1CCC(=O)N1` [Compound 158, (S)-5-((((6-(2-chloro-3-(3-chloro-2-(2-(2-hydroxyethyl)-5-methyl-2,3,4,5-tetrahydro-1H-pyrido[4,3-b]indol-7-yl)pyridine-4-yl)phenyl)-2-methoxypyridin-3-yl)methyl)amino)methyl)pyridine1330ne-2-one] are 0.64 nM and at least 10000 nM.
Turning to `CNCc1ccc(-c2cccc(-c3ccnc(-c4ccc5c(c4)CNC5)c3Cl)c2Cl)nc1OC` [Compound 159, 1-(6-(2-chloro-3-(3-chloro-2-(isoindolin-5-yl)pyridine-4-yl)phenyl)-2-methoxypyridin-3-yl)-N-methylmethanamine], in test [1], the IC50 turned out to be 1.34 nM. Besides, the EC50 on human PD-L1 was at least 10000 nM.
Take `COc1nc(-c2cccc(-c3ccnc(-c4ccc5c(c4)CNC5)c3Cl)c2Cl)ccc1CNCCO` [Compound 160, 2-(((6-(2-chloro-3-(3-chloro-2-(isoindolin-5-yl)pyridine-4-yl)phenyl)-2-methoxypyridin-3-yl)methyl)amino)ethan-1-ol]: inhibition in test [1] was half-maximal at 0.87 nM (IC50). Besides, on human PD-L1, the midpoint of the response, the EC50, lay at 150 nM.
For `COc1nc(-c2cccc(-c3ccnc(-c4ccc5c(c4)CNC5)c3Cl)c2Cl)ccc1CNC[C@H](C)O` [Compound 161, (S)-1-(((6-(2-chloro-3-(3-chloro-2-(isoindolin-5-yl)pyridine-4-yl)phenyl)-2-methoxypyridin-3-yl)methyl)amino)propan-2-ol] the same measures were 0.73 nM and 387 nM.
The compound `COc1nc(-c2cccc(-c3ccnc(-c4ccc5c(c4)CNC5)c3Cl)c2Cl)ccc1CNC1CCN(C(C)=O)CC1` [Compound 162, 1-(4-(((6-(2-chloro-3-(3-chloro-2-(isoindolin-5-yl)pyridine-4-yl)phenyl)-2-methoxypyridin-3-yl)methyl)amino)piperidin-1-yl)ethan-1-one] returned a half-inhibitory concentration (IC50) in test [1] of 0.78 nM. The compound also showed an EC50 on human PD-L1 of 5160 nM.
As for `COc1nc(-c2cccc(-c3ccnc(-c4ccc5c(c4)CNC5)c3Cl)c2Cl)ccc1CN(C)C1CCN(C(C)=O)CC1` [Compound 163, 1-(4-(((6-(2-chloro-3-(3-chloro-2-(isoindolin-5-yl)pyridine-4-yl)phenyl)-2-methoxypyridin-3-yl)methyl)(methyl)amino)piperidin-1-yl)ethan-1-one], in test [1], the IC50 was 3.29 nM. Moreover, on human PD-L1, the EC50 is at least 10000 nM.
The corresponding values for `COc1nc(-c2ccnc(-c3cccc4c3CC[C@@H]4Nc3nc(OC)c(CNC4(C(=O)O)CC4)cc3C(F)(F)F)c2Cl)ccc1CNC[C@@H]1CCC(=O)N1` [Compound 164, 1-(((6-(((S)-4-(3′-chloro-6-methoxy-5-(((((S)-5-oxopyrrolidin-2-yl)methyl)amino)methyl)-[2,4′-bipyridin]-2′-yl)-2,3-dihydro-1H-inden-1-yl)amino)-2-methoxy-5-(trifluoromethyl)pyridine-3-yl)methyl)amino)cyclopropane-1-carboxylic acid] are 0.49 nM and 66.6 nM.
The corresponding values for `COc1nc(-c2ccnc(-c3cccc4c3CC[C@@H]4Oc3nc(OC)c(CNC[C@@H](C)O)cc3C(F)(F)F)c2Cl)ccc1CNC[C@@H]1CCC(=O)N1` [Compound 165, (S)-5-((((3′-chloro-2′-((S)-1-((5-((( ®-2-hydroxypropyl)amino)methyl)-6-methoxy-3-(trifluoromethyl)pyridine-2-yl)oxy)-2,3-dihydro-1H-inden-4-yl)-6-methoxy-[2,4′-bipyridin]-5-yl)methyl)amino)methyl)pyridine1332ne-2-one] are 0.35 nM and 4.15 nM.
For `COc1nc(-c2ccnc(-c3cccc4c3CC[C@@H]4Oc3nc(OC)c(CNC[C@@H]4CCC(=O)N4)cc3C(F)(F)F)c2Cl)ccc1CNC[C@@H]1CCC(=O)N1` [Compound 166, (S)-5-((((3′-chloro-6-methoxy-2′-((S)-1-((6-methoxy-5-(((((S)-5-oxopyrrolidin-2-yl)methyl)amino)methyl)-3-(trifluoromethyl)pyridine-2-yl)oxy)-2,3-dihydro-1H-inden-4-yl)-[2,4′-bipyridin]-5-yl)methyl)amino)methyl)pyridine1332ne-2-one] the same measures were 0.18 nM and 1.98 nM.
As to `COc1nc(-c2cccc(-c3ccnc(-c4ccc5c(CNC6CCN(C(C)=O)CC6)nn(C)c5c4)c3Cl)c2Cl)ccc1CNC[C@@H]1CCC(=O)N1` [Compound 167, (S)-5-((((6-(3-(2-(3-(((1-acetylpiperidin-4-yl)amino)methyl)-1-methyl-1H-indazol-6-yl)-3-chloropyridin-4-yl)-2-chlorophenyl)-2-methoxypyridin-3-yl)methyl)amino)methyl)pyridine1332ne-2-one], it took 1.47 nM to reach half-maximal inhibition in test [1] (IC50). The same compound came in with an EC50 on human PD-L1 of 18.4 nM.
For `COc1nc(-c2cccc(-c3ccnc(-c4ccc5c(CN(C)C6CCN(C(C)=O)CC6)nn(C)c5c4)c3Cl)c2Cl)ccc1CNC[C@@H]1CCC(=O)N1` [Compound 168, (S)-5-((((6-(3-(2-(3-(((1-acetylpiperidin-4-yl)(methyl)amino)methyl)-1-methyl-1H-indazol-6-yl)-3-chloropyridin-4-yl)-2-chlorophenyl)-2-methoxypyridin-3-yl)methyl)amino)methyl)pyridine1332ne-2-one] the same measures were 3.6 nM and 12.5 nM.
For `CNCc1ccc(-c2cccc(-c3ccnc(-c4cc(CNC[C@@H](O)CC(=O)O)cc(OC)c4)c3Cl)c2Cl)nc1OC` [Compound 169, (S)-4-((3-(3-chloro-4-(2-chloro-3-(6-methoxy-5-((methylamino)methyl)pyridine-2-yl)phenyl)pyridine-2-yl)-5-methoxybenzyl)amino)-3-hydroxybutanoic acid] the same measures were 1.85 nM and 632 nM.
Compound `CNCc1ccc(-c2cccc(-c3ccnc(-c4cc(CNCCC(=O)O)cc(OC)c4)c3Cl)c2Cl)nc1OC` [Compound 170, 3-((3-(3-chloro-4-(2-chloro-3-(6-methoxy-5-((methylamino)methyl)pyridine-2-yl)phenyl)pyridine-2-yl)-5-methoxybenzyl)amino)propanoic acid] returned an IC50 in test [1] of 0.73 nM. Besides, a half-maximal response at human PD-L1 (EC50) required 415 nM.
Turning to `CNCc1ccc(-c2cccc(-c3ccnc(-c4cc(CN5CC[C@H](C(=O)O)C5)cc(OC)c4)c3Cl)c2Cl)nc1OC` [Compound 171, (S)-1-(3-(3-chloro-4-(2-chloro-3-(6-methoxy-5-((methylamino)methyl)pyridine-2-yl)phenyl)pyridine-2-yl)-5-methoxybenzyl)pyrrolidine-3-carboxylic acid], the midpoint of inhibition in test [1], the IC50, lay at 1.65 nM. For the same compound, the EC50 on human PD-L1 was found to be 670 nM.
